Data from patent publication US4336263A, “1,4-Cycloalkano-oxazepines, salts thereof and analgesic uses thereof” (priority 1978, dated 1982).

System: female mice (NMRI strain)
Experiment: animal or person
Format: in vivo
Details: Mus musculus, ip, 0.5 h, read-out: ED 100% (dose which increases the reaction time by 100%), intraperitoneal administration; 30 minutes after administration
Procedure: The model used for testing the analgesic action was the tail flick test of D'AMOUR and SMITH (J. Pharmacol. 72 (1941), 74-79). In this experiment, the compounds to be tested were administered intraperitoneally or orally, as aqueous solutions (injection volume 10 ml/kg) to groups of 10 female mice (NMRI strain) weighing 20-22 g each.
Pain reactions are caused before, and 30 minutes after, the administration of the compound, by means of thermal irritation (the tail being exposed to focused heat radiation from a halogen lamp for at most 30 seconds).
The time until the tail is drawn out of the radiation zone by reflex action is measured, and taken as the reaction time. Its average value, for 670 untreated animals, is 6.5±0.29 sec.
Analgesic substances increase the reaction time, to an extent depending on the dose. There is a linear relationship between the logarithms of the doses (mg/kg) and of the relative increase in reaction time (Δ%), from which the dose, defined as the ED 100%, which doubles the reaction time can be calculated by means of regression analysis. For a radiation exposure period of at most 30 seconds, the maximum possible increase in the reaction time is about 360%.

Row | SMILES | ED (100%)
1 | COc1cccc([C@@]23CCCC[C@@H]2CN(C)CCO3)c1 (single isomer, unassigned) [9 (-), (-)-4-Methyl-9a-(3-methoxyphenyl)-perhydro-1,4-benzoxazepine] | 11 mg/kg
2 | COc1cccc([C@@]23CCCC[C@@H]2CN(C)CCO3)c1 (relative stereo) [Example 3, 4-methyl-9a-(3-methoxyphenyl)-perhydro-1,4-benzoxazepine] | 11.4 mg/kg
3 | CN1CCO[C@]2(c3cccc(O)c3)CCCC[C@@H]2C1 (relative stereo) [Example 7, 4-Methyl-9a-(3-hydroxyphenyl)-perhydro-1,4-benzoxazepine] | 6.55 mg/kg

Same assay, conditions: Mus musculus, po, 0.5 h, read-out: ED 100% (dose which increases the reaction time by 100%), oral administration; 30 minutes after administration

Row | SMILES | ED (100%)
4 | COc1cccc([C@@]23CCCC[C@@H]2CN(C)CCO3)c1 (single isomer, unassigned) [9 (-), (-)-4-Methyl-9a-(3-methoxyphenyl)-perhydro-1,4-benzoxazepine] | 17.6 mg/kg
5 | COc1cccc([C@@]23CCCC[C@@H]2CN(C)CCO3)c1 (relative stereo) [Example 3, 4-methyl-9a-(3-methoxyphenyl)-perhydro-1,4-benzoxazepine] | 17 mg/kg
6 | CN1CCO[C@]2(c3cccc(O)c3)CCCC[C@@H]2C1 (relative stereo) [Example 7, 4-Methyl-9a-(3-hydroxyphenyl)-perhydro-1,4-benzoxazepine] | 18.6 mg/kg

Same assay, conditions: i.p. ED 100% / oral ED 100%; 30 min

Row | SMILES | Q (enteral activity: quotient of ED 100% for intraperitoneal and oral administration)
7 | COc1cccc([C@@]23CCCC[C@@H]2CN(C)CCO3)c1 (single isomer, unassigned) [9 (+), (+)-4-Methyl-9a-(3-methoxyphenyl)-perhydro-1,4-benzoxazepine] | 0.71
8 | COc1cccc([C@@]23CCCC[C@@H]2CN(C)CCO3)c1 (single isomer, unassigned) [9 (-), (-)-4-Methyl-9a-(3-methoxyphenyl)-perhydro-1,4-benzoxazepine] | 0.63
9 | COc1cccc([C@@]23CCCC[C@@H]2CN(C)CCO3)c1 (relative stereo) [Example 3, 4-methyl-9a-(3-methoxyphenyl)-perhydro-1,4-benzoxazepine] | 0.67
10 | CN1CCO[C@]2(c3cccc(O)c3)CCCC[C@@H]2C1 (relative stereo) [Example 7, 4-Methyl-9a-(3-hydroxyphenyl)-perhydro-1,4-benzoxazepine] | 0.35

Same assay, conditions: intraperitoneal administration; 30 minutes after administration

Row | SMILES | ED 100% (dose which increases the reaction time by 100%)
11 | COc1cccc([C@@]23CCCC[C@@H]2CN(C)CCO3)c1 (single isomer, unassigned) [9 (+), (+)-4-Methyl-9a-(3-methoxyphenyl)-perhydro-1,4-benzoxazepine] | 16.7 mg/kg

Same assay, conditions: intraperitoneal administration; Nefopam = 1.00

Row | SMILES | relative activity
12 | COc1cccc([C@@]23CCCC[C@@H]2CN(C)CCO3)c1 (single isomer, unassigned) [9 (+), (+)-4-Methyl-9a-(3-methoxyphenyl)-perhydro-1,4-benzoxazepine] | 0.48
13 | COc1cccc([C@@]23CCCC[C@@H]2CN(C)CCO3)c1 (relative stereo) [Example 3, 4-methyl-9a-(3-methoxyphenyl)-perhydro-1,4-benzoxazepine] | 0.71
14 | CN1CCO[C@]2(c3cccc(O)c3)CCCC[C@@H]2C1 (relative stereo) [Example 7, 4-Methyl-9a-(3-hydroxyphenyl)-perhydro-1,4-benzoxazepine] | 1.23

Same assay, conditions: intraperitoneal administration; dose of maximum action

Row | SMILES | Maximum action, mg/kg (dose)
15 | COc1cccc([C@@]23CCCC[C@@H]2CN(C)CCO3)c1 (single isomer, unassigned) [9 (+), (+)-4-Methyl-9a-(3-methoxyphenyl)-perhydro-1,4-benzoxazepine] | 46.4 mg/kg
16 | COc1cccc([C@@]23CCCC[C@@H]2CN(C)CCO3)c1 (relative stereo) [Example 3, 4-methyl-9a-(3-methoxyphenyl)-perhydro-1,4-benzoxazepine] | 46.4 mg/kg
17 | CN1CCO[C@]2(c3cccc(O)c3)CCCC[C@@H]2C1 (relative stereo) [Example 7, 4-Methyl-9a-(3-hydroxyphenyl)-perhydro-1,4-benzoxazepine] | 46.4 mg/kg

Same assay, conditions: intraperitoneal administration; maximum increase without fatalities

Row | SMILES | Maximum action, Δ% (increase in reaction time)
18 | COc1cccc([C@@]23CCCC[C@@H]2CN(C)CCO3)c1 (single isomer, unassigned) [9 (+), (+)-4-Methyl-9a-(3-methoxyphenyl)-perhydro-1,4-benzoxazepine] | 249%
19 | COc1cccc([C@@]23CCCC[C@@H]2CN(C)CCO3)c1 (single isomer, unassigned) [9 (-), (-)-4-Methyl-9a-(3-methoxyphenyl)-perhydro-1,4-benzoxazepine] | 348%
20 | COc1cccc([C@@]23CCCC[C@@H]2CN(C)CCO3)c1 (relative stereo) [Example 3, 4-methyl-9a-(3-methoxyphenyl)-perhydro-1,4-benzoxazepine] | 416%
21 | CN1CCO[C@]2(c3cccc(O)c3)CCCC[C@@H]2C1 (relative stereo) [Example 7, 4-Methyl-9a-(3-hydroxyphenyl)-perhydro-1,4-benzoxazepine] | 364%

Same assay, conditions: mouse, in vivo, ip

Row | SMILES | Maximum action, mg/kg (dose) | relative activity
22 | COc1cccc([C@@]23CCCC[C@@H]2CN(C)CCO3)c1 (single isomer, unassigned) [9 (-), (-)-4-Methyl-9a-(3-methoxyphenyl)-perhydro-1,4-benzoxazepine] | 46.4 mg/kg | 0.74

Same assay, conditions: mouse, in vivo, po

Row | SMILES | Maximum action, mg/kg (dose)
23 | COc1cccc([C@@]23CCCC[C@@H]2CN(C)CCO3)c1 (single isomer, unassigned) [9 (-), (-)-4-Methyl-9a-(3-methoxyphenyl)-perhydro-1,4-benzoxazepine] | 100 mg/kg

Same assay, conditions: oral administration; 30 minutes after administration

Row | SMILES | ED 100% (dose which increases the reaction time by 100%)
24 | COc1cccc([C@@]23CCCC[C@@H]2CN(C)CCO3)c1 (single isomer, unassigned) [9 (+), (+)-4-Methyl-9a-(3-methoxyphenyl)-perhydro-1,4-benzoxazepine] | 23.5 mg/kg

Same assay, conditions: oral administration; Nefopam = 1.00

Row | SMILES | relative activity
25 | COc1cccc([C@@]23CCCC[C@@H]2CN(C)CCO3)c1 (single isomer, unassigned) [9 (+), (+)-4-Methyl-9a-(3-methoxyphenyl)-perhydro-1,4-benzoxazepine] | 1.97
26 | COc1cccc([C@@]23CCCC[C@@H]2CN(C)CCO3)c1 (single isomer, unassigned) [9 (-), (-)-4-Methyl-9a-(3-methoxyphenyl)-perhydro-1,4-benzoxazepine] | 2.64
27 | COc1cccc([C@@]23CCCC[C@@H]2CN(C)CCO3)c1 (relative stereo) [Example 3, 4-methyl-9a-(3-methoxyphenyl)-perhydro-1,4-benzoxazepine] | 2.73
28 | CN1CCO[C@]2(c3cccc(O)c3)CCCC[C@@H]2C1 (relative stereo) [Example 7, 4-Methyl-9a-(3-hydroxyphenyl)-perhydro-1,4-benzoxazepine] | 2.50

Same assay, conditions: oral administration; dose of maximum action

Row | SMILES | Maximum action, mg/kg (dose)
29 | COc1cccc([C@@]23CCCC[C@@H]2CN(C)CCO3)c1 (single isomer, unassigned) [9 (+), (+)-4-Methyl-9a-(3-methoxyphenyl)-perhydro-1,4-benzoxazepine] | 100 mg/kg
30 | COc1cccc([C@@]23CCCC[C@@H]2CN(C)CCO3)c1 (relative stereo) [Example 3, 4-methyl-9a-(3-methoxyphenyl)-perhydro-1,4-benzoxazepine] | 100 mg/kg
31 | CN1CCO[C@]2(c3cccc(O)c3)CCCC[C@@H]2C1 (relative stereo) [Example 7, 4-Methyl-9a-(3-hydroxyphenyl)-perhydro-1,4-benzoxazepine] | 46.4 mg/kg

Same assay, conditions: oral administration; maximum increase without fatalities

Row | SMILES | Maximum action, Δ% (increase in reaction time)
32 | COc1cccc([C@@]23CCCC[C@@H]2CN(C)CCO3)c1 (single isomer, unassigned) [9 (+), (+)-4-Methyl-9a-(3-methoxyphenyl)-perhydro-1,4-benzoxazepine] | 370%
33 | COc1cccc([C@@]23CCCC[C@@H]2CN(C)CCO3)c1 (single isomer, unassigned) [9 (-), (-)-4-Methyl-9a-(3-methoxyphenyl)-perhydro-1,4-benzoxazepine] | 397%
34 | COc1cccc([C@@]23CCCC[C@@H]2CN(C)CCO3)c1 (relative stereo) [Example 3, 4-methyl-9a-(3-methoxyphenyl)-perhydro-1,4-benzoxazepine] | 397%
35 | CN1CCO[C@]2(c3cccc(O)c3)CCCC[C@@H]2C1 (relative stereo) [Example 7, 4-Methyl-9a-(3-hydroxyphenyl)-perhydro-1,4-benzoxazepine] | 332%

System: not listed separately
Experiment: acute lethal dose (LD 50) for intraperitoneal administration
Format: in vivo
Details: not given
Source text: The comparatively low toxicity of the novel compounds can also be deduced from the acute lethal dose (LD 50) for intraperitoneal administration (Table 2). The LD 50 values are from about 90% to 240% higher than those of Nefopam.

Row | SMILES | LD50
36 | COc1cccc([C@@]23CCCC[C@@H]2CN(C)CCO3)c1 (single isomer, unassigned) [9 (+), (+)-4-Methyl-9a-(3-methoxyphenyl)-perhydro-1,4-benzoxazepine] | 110 mg/kg

Same assay, conditions: Nefopam = 1.00

Row | SMILES | Relative toxicity
37 | COc1cccc([C@@]23CCCC[C@@H]2CN(C)CCO3)c1 (single isomer, unassigned) [9 (+), (+)-4-Methyl-9a-(3-methoxyphenyl)-perhydro-1,4-benzoxazepine] | 0.52
38 | COc1cccc([C@@]23CCCC[C@@H]2CN(C)CCO3)c1 (single isomer, unassigned) [9 (-), (-)-4-Methyl-9a-(3-methoxyphenyl)-perhydro-1,4-benzoxazepine] | 0.40
39 | COc1cccc([C@@]23CCCC[C@@H]2CN(C)CCO3)c1 (relative stereo) [Example 3, 4-methyl-9a-(3-methoxyphenyl)-perhydro-1,4-benzoxazepine] | 0.52
40 | CN1CCO[C@]2(c3cccc(O)c3)CCCC[C@@H]2C1 (relative stereo) [Example 7, 4-Methyl-9a-(3-hydroxyphenyl)-perhydro-1,4-benzoxazepine] | 0.35

Same assay, conditions: in vivo, ip, read-out: LD 50

Row | SMILES | LD50
41 | COc1cccc([C@@]23CCCC[C@@H]2CN(C)CCO3)c1 (single isomer, unassigned) [9 (-), (-)-4-Methyl-9a-(3-methoxyphenyl)-perhydro-1,4-benzoxazepine] | 145 mg/kg
42 | COc1cccc([C@@]23CCCC[C@@H]2CN(C)CCO3)c1 (relative stereo) [Example 3, 4-methyl-9a-(3-methoxyphenyl)-perhydro-1,4-benzoxazepine] | 110 mg/kg
43 | CN1CCO[C@]2(c3cccc(O)c3)CCCC[C@@H]2C1 (relative stereo) [Example 7, 4-Methyl-9a-(3-hydroxyphenyl)-perhydro-1,4-benzoxazepine] | 165 mg/kg
